# Assay results taken from patent publication EP0571593B1, “NEW NON IONIC IODIZED AGENTS FOR X-RAY CONTRASTING, METHOD FOR PREPARING THEM AND GALENICAL COMPOSITIONS CONTAINING THEM” (CENTRO INVESTIGACION JUSTESA IMAGEN S.A., priority 1991, dated 1993).
# Columns and labels:
# Type in all cases: physicochemical
# Iodine content = test: Iodine content
# [1] = Viscosity of aqueous solutions; settings: 30°C, 300mg I/ml
# [2] = Osmolality of aqueous solutions; settings: 300mg I/ml
Structure (SMILES),% Iodine (Iodine content),Viscosity mPa s (30°C) at 300mg I/ml [1],Osmolality mosm/kg at 300mg I/ml [2] [mosm/kg]
"CN(CC(=O)N(C)c1c(I)c(C(=O)NC(CO)C(O)CO)c(I)c(C(=O)NC(CO)C(O)CO)c1I)C(=O)c1c(I)c(NC(=O)CO)c(I)c(C(=O)NCC(O)CO)c1I (stereo not drawn) [EXAMPLE 8, N,N'-bis-(1-hydroxymethyl-2,3-dihydroxypropyl)-5-{3-[N-(2,3-dihydroxypropyl)carbamoyl]-5-hydroxyacetamido-2,4,6-triiodobenzoyl-N-methylaninoacetyl-N-nethylamino}-2,4,6-tri iodoisophthalamide]",50%,"7,6 mPa s",190
"COCC(=O)Nc1c(I)c(C(=O)NC(CO)C(O)CO)c(I)c(C(=O)N(C)CC(=O)N(C)c2c(I)c(C(=O)NC(CO)C(O)CO)c(I)c(C(=O)NC(CO)C(O)CO)c2I)c1I (stereo not drawn) [EXAMPLE 10, N,N'-bis-(1-hydroxymethyl-2,3-dihydroxypropyl)-5-{3-[N-(1-hydroxymethyl-2,3-dihydroxypropyl)carbamoyl]-5-methoxyacetamido-2,4,6-triiodobenzoyl-N-methylaminoacetyl-N-methylamino}-2,4,6-triiodoisophthalamide]","48,6%","8,9 mPa s",204
"COCC(=O)Nc1c(I)c(C(=O)NCC(O)CO)c(I)c(C(=O)N(C)CC(=O)N(C)c2c(I)c(C(=O)NCC(O)CO)c(I)c(C(=O)NCC(O)CO)c2I)c1I (stereo not drawn) [EXAMPLE 12, N,N'-bis-(2,3-dihydroxypropyl)-5-{3-[N-(2,3-dihydroxypropyl)carbamoyl]-5-methoxyacetamido-2,4,6-triiodobenzoyl -N-methylaminoacetyl-N-methylamino}-2,4,6-triiodoisophthalamide]","51,6%","8,6 mPa s",130
"O=C(CN(CC(O)CO)C(=O)c1c(I)c(NC(=O)CO)c(I)c(C(=O)NCC(O)CO)c1I)Nc1c(I)c(C(=O)NCC(O)CO)c(I)c(C(=O)NCC(O)CO)c1I (stereo not drawn) [EXAMPLE 13, N,N'-bis-(2,3-dihydroxypropyl)-5-{3-[N-(2,3-dihydroxypropyl)carbamoyl]-5-hydroxyacetamido-2,4,6-triiodobenzoyl-N-(2,3-dihydroxypropyl)aminoacetamido}-2,4,6-triiodoisophthalamide]","50,5%","7,2 mPa s",190
"COCC(=O)Nc1c(I)c(C(=O)NCC(O)CO)c(I)c(C(=O)N(CC(=O)Nc2c(I)c(C(=O)NCC(O)CO)c(I)c(C(=O)NCC(O)CO)c2I)CC(O)CO)c1I (stereo not drawn) [EXAMPLE 15, N,N'-bis-(2,3-dihydroxypropyl)-5-{3-[N-(2,3-dihydroxypropyl)carbamoyl]-5-methoxyacetamido-2,4,6-triiodobenzoyl -N-(2,3-dihydroxypropyl)aminoacetamido}-2,4,6-triiodo isophthalamide]",50%,"8,6 mPa s",162
"O=C(NCCO)c1c(I)c(C(=O)NCCO)c(I)c(N(CCO)C(=O)CN(CCO)C(=O)c2c(I)c(C(=O)NCC(O)CO)c(I)c(N(CCO)C(=O)CO)c2I)c1I (stereo not drawn) [EXAMPLE 16, N,N'-bis-(2-hydroxyethyl)-5-{3-[N-(2,3-dihydroxypropyl)-carbamoyl]-5-hydroxyacetyl-N-(2-hydroxyethyl)amino-2,4,6-tri-iodobenzoyl-N-(2-hydroxyethyl)amino-acetyl-N-(2-hydroxyethyl)amino}-2,4,6-triiodoisophthalamide]","50,5%","7,6 mPa s",131
"COCC(=O)Nc1c(I)c(C(=O)NCC(O)CO)c(I)c(C(=O)N(CCO)CC(=O)Nc2c(I)c(C(=O)NC(CO)C(O)CO)c(I)c(C(=O)NC(CO)C(O)CO)c2I)c1I (stereo not drawn) [EXAMPLE 22, N,N'-bis-(1-hydroxymethyl-2,3-dihydroxypropyl)-5-{3-[N-(2,3-dihydroxypropyl)carbamoyl]-5-methoxyacetamido-2,4,6-triiodobenzoyl-N-(2-hydroxyethyl)aminoacetamido}-2,4,6-triiodo isophthalamide]",49%,"10,0 mPa s",118
"CC(=O)Nc1c(I)c(C(=O)NCC(O)CO)c(I)c(C(=O)N(CC(=O)N(C)c2c(I)c(C(=O)NCC(O)CO)c(I)c(C(=O)NCC(O)CO)c2I)CC(O)CO)c1I (stereo not drawn) [EXAMPLE 23, N,N -bis-(2,3-dihydroxypropyl)-5-{3-[N-(2,3-dihydroxypropyl)carbamoyl]-5-acetamido-2,4,6-triiodobenzoyl-N-(2,3-dihydroxypropyl)aminoacetyl-N-methylamino}-2,4,6-triiodoisophthalamide]","50,5%","7,9 mPa s",162
"CN(CC(=O)N(C)c1c(I)c(C(=O)N(C)CC(O)CO)c(I)c(C(=O)N(C)CC(O)CO)c1I)C(=O)c1c(I)c(NC(=O)CO)c(I)c(C(=O)NCC(O)CO)c1I (stereo not drawn) [EXAMPLE 24, N,N'-bis-(2,3-dihydroxypropyl)-N,N'-dimethyl-5-{3-[N-(2,3-dihydroxypropyl)carbamoyl]-5-hydroxyacetamido-2,4,6-triiodobenzoyl-N-methylaminoacetyl-N-methylamino}-triiodo isophthalamide]","51,1%","7,1 mPa s",165
"COCC(=O)Nc1c(I)c(C(=O)NCC(O)CO)c(I)c(C(=O)N(C)CC(=O)N(C)c2c(I)c(C(=O)N(C)CC(O)CO)c(I)c(C(=O)N(C)CC(O)CO)c2I)c1I (stereo not drawn) [EXAMPLE 25, N,N'-bis-(2,3-dihydroxypropyl)-N,N'-dimethyl-5-{3-[N-(2,3-dihydroxypropyl)carbamoyl]-5-methoxyacetamido-2,4,6-triiodobenzoyl-N-methylaminoacetyl-N-methylamino}-2,4,6-triiodo isophthalamide]","50,6%","8,0 mPa s",140
"CN(CC(O)CO)C(=O)c1c(I)c(C(=O)N(C)CC(O)CO)c(I)c(N(C)C(=O)CNC(=O)c2c(I)c(NC(=O)CO)c(I)c(C(=O)NCC(O)CO)c2I)c1I (stereo not drawn) [EXAMPLE 26, N,N'-bis-(2,3-dihydroxypropyl)-N,N'-dimethyl-5-{3-[N-(2,3-dihydroxypropyl)carbamoyl]-5-hydroxyacetamido-2,4,6-triiodobenzoylaminoacetyl-N-methylamino}-2,4,6-triiodoiso phthalamide]","51,6%","7,7 mPa s",145
"COCC(=O)N(CCO)c1c(I)c(C(=O)NCC(O)CO)c(I)c(C(=O)N(CCO)CC(=O)N(CCO)c2c(I)c(C(=O)NCCO)c(I)c(C(=O)NCCO)c2I)c1I (stereo not drawn) [EXAMPLE 32, N,N'-bis-(2-hydroxyethyl)-5-{3-[N-(2,3-dihydroxypropyl)carbamoyl]-5-methoxyacetyl-N-(2-hydroxyethyl)amino-2,4,6-triiodobenzoyl-N-(2-hydroxyethyl)aminoacetyl-N-(2-hydroxyethyl)amino}-2,4,6-triiodoisophthalamide]",50%,"8,2 mPa s",155
"COCC(=O)N(CCO)c1c(I)c(C(=O)NCC(O)CO)c(I)c(C(=O)N(C)CC(=O)N(CCO)c2c(I)c(C(=O)NCC(O)CO)c(I)c(C(=O)NCC(O)CO)c2I)c1I (stereo not drawn) [EXAMPLE 35, N,N'-bis-(2,3-dihydroxypropyl)-5-{3-[N-(2,3-dihydroxypropyl)carbamoyl]-5-methoxyacetyl-N-(2-hydroxyethyl)amino-2,4,6-triiodobenzoyl-N-methylaminoacetyl-N-(2-hydroxyethyl)amino}-2,4,6 triiodoisophthalamide]","49,1%","8,2 mPa s",214
"CC(=O)Nc1c(I)c(C(=O)NCC(O)CO)c(I)c(C(=O)N(C)CC(=O)N(C)c2c(I)c(C(=O)NCC(O)CO)c(I)c(C(=O)NCC(O)CO)c2I)c1I (stereo not drawn) [EXAMPLE 37, N,N'-bis-(2,3-dihydroxypropyl)-5-{3-[N-(2,3-dihydroxypropyl)carbamoyl]-5-acetamido-2,4,6-triiodobenzoyl-N-methylacetyl-N-methylamino}-2,4,6-triiodoisophthalamide]","52,6%","9,9 mPa s",130
"CC(=O)Nc1c(I)c(C(=O)NCC(O)CO)c(I)c(C(=O)N(C)CC(=O)N(C)c2c(I)c(C(=O)NC(CO)C(O)CO)c(I)c(C(=O)NC(CO)C(O)CO)c2I)c1I (stereo not drawn) [EXAMPLE 38, N,N'-bis-(1-hydroxymethyl-2,3-dihydroxypropyl)-5-{3-[N-(2,3-dihydroxypropyl]carbamoyl]-5-acetamido-2,4,6-triiodobenzoyl -N-methylacetyl-N-methylamino}-2,4,6-triiodoisophthalamide]","50,6%","9,1 mPa s",155
"COCC(=O)Nc1c(I)c(C(=O)NCC(O)CO)c(I)c(C(=O)N(CC(=O)N(C)c2c(I)c(C(=O)NCC(O)CO)c(I)c(C(=O)NCC(O)CO)c2I)CC(O)COC)c1I (stereo not drawn) [EXAMPLE 39, N,N'-bis-(2,3-dihydroxypropyl)-5-{3-[N-(2,3-dihydroxypropyl)carbamoyl]-5-methoxyacetamido-2,4,6-triiodobenzoyl--N-(2-hydroxy-3-methoxypropyl)aminoacetyl-N-methylamino} -2,4,6-triiodoisophthalamide]","49,1%","9,6 mPa s",190
"COCCN(C(=O)CO)c1c(I)c(C(=O)NCC(=O)N(CCOC)c2c(I)c(C(=O)NCC(O)CO)c(I)c(C(=O)NCC(O)CO)c2I)c(I)c(C(=O)NCC(O)CO)c1I (stereo not drawn) [EXAMPLE 40, N,N'-bis-(2,3-dihydroxypropyl)-5-{3-[N-(2,3-dihydroxypropyl)carbamoyl]-5-hydroxyacetyl-N-(2-methoxyethyl)amino-2,4,6-triiodobenzoylaminoacetyl-N-(2-methoxyethyl)amino} -2,4,6-triiodoisophthalamide]","49,1%","10,2 mPa s",160
